# According to patent US20110306580A1 (DONG WHA PHARMACEUTICAL CO ., LTD., priority 2009, published 2011):
# System: ROS17/2.8 cells
# Assay: Cell growth of ROS17/2.8 cells by the MTT method (formed formazan)
# Format: cell-based, rat
# Details: for activity at 0.02 µM: Rattus norvegicus, 2×10^−5M Test Compound solution diluted 1000 fold, read-out: Amount of formed formazan, Solution 8 (Test Compound alone); for activity at 0.02 µM / Amount of formed formazan, Solution 10 (a group of a drug combination): percentage to Solution 7 addition group, about 48 hours, average ± standard deviation of four wells; for Relative index of Solution 10 (a group of a drug combination) / Amount of formed formazan, Solution 10 (a group of a drug combination): Test Compound in combination with 1α,25-dihydroxyvitamin D3; for Relative index of Solution 10 (a group of a drug combination) / Relative index of Solution 8 (Test Compound alone): amount of formed formazan, Solution 7 = 1.00
# Procedure: 100 μL of a 10% FCS-αMEM comprising either DMSO and ethanol (referred to as Solution 7, hereinafter), a Test Compound solution and ethanol (referred to as Solution 8, hereinafter), a 1α,25-dihydroxyvitamin D3 solution and DMSO (referred to as Solution 9, hereinafter) or a Test Compound solution and the 1α,25-dihydroxyvitamin D3 solution (referred to as Solution 10, hereinafter) was dispensed. The ROS17/2.8 cells were inoculated to a medium at a density of 5×10^3 cells/100 μL/well. After culture of the cells for about 48 hours, the effect of Test Compound and 1α,25-dihydroxyvitamin D3 on the cell growth of the ROS17/2.8 cells was evaluated using the MTT method. Namely, after culture of the cells for about 44 hours, an MTT solution (3-[4,5-dimethylthiazol-2-yl]-2,5-diphenyltetrazolium bromide 2 mg/mL) was added in an amount of 25 μL/well, and the cells were further cultured for four hours. After the medium was removed, DMSO was added in an amount of 100 μL/well so as to dissolve the formed formazan. The amount of the formed formazan was determined by measuring the absorbance (at 560 nm) of the solution by a microplate reader.
# The 10% FCS-αMEM comprising Solution 7 was prepared by diluting DMSO by 1000 fold with the 10% FCS-αMEM, and diluting ethanol by 10000 fold with the 10% FCS-αMEM. The 10% FCS-αMEM comprising Solution 8 was prepared by diluting a 2×10^−5M Test Compound solution by 1000 fold with the 10% FCS-αMEM, and diluting ethanol by 10000 fold with the 10% FCS-αMEM. The 10% FCS-αMEM comprising Solution 9 was prepared by diluting 2×10^−3M 1α,25-dihydroxyvitamin D3 solution by 10000 fold with the 10% FCS-αMEM, and diluting DMSO by 1000 fold with the 10% FCS-αMEM. The 10% FCS-αMEM comprising Solution 10 was prepared by diluting a 2×10^−5M Test Compound solution by 1000 fold with the 10% FCS-αMEM, and diluting 2×10^−3M 1α,25-dihydroxyvitamin D3 solution by 10000 fold with the 10% FCS-αMEM.
# The amount of the formed formazan in each solution addition group was obtained in terms of a percentage to the average value of the amounts of formed formazan in four wells in a Solution 7 addition group. All the determined values were shown in terms of the average value±standard deviation of the four wells of each solution addition group.
Compound,activity at 0.02 µM [%],Relative index of Solution 10 (a group of a drug combination),"Amount of formed formazan, Solution 10 (a group of a drug combination)",Relative index of Solution 8 (Test Compound alone)
"N/C(=N\O)c1ccc(OCCCCCOc2ccc(-c3nc(-c4cccnc4)sc3Cc3ccccc3)cc2)cc1 [Compound 2, N-hydroxy-4-{5-[4-(5-benzyl-2-(pyridin-3-yl)-1,3-thiazol-4-yl]phenoxy]pentoxy}benzamidine]",103 ± 3.1,1.17,117 ± 2.6 # %,1.03
"Cc1nc(-c2ccc(OCCCCCOc3ccc(/C(N)=N/O)cc3)cc2)c(CCCl)s1 [Compound 3, N-hydroxy-4-{5-[4-(5-(2-chloroethyl)-2-methyl-1,3-thiazol-4-yl)phenoxy]pentoxy}benzamidine]",105 ± 3.1,1.12,112 ± 2.7 # %,1.05
"CCc1nc(-c2ccc(OCCCCCOc3ccc(/C(N)=N/O)cc3)cc2)c(CC2CCCC2)s1 [Compound 4, N-hydroxy-4-{5-[4-(5-cyclopentylmethyl-2-ethyl-1,3-thiazol-4-yl)phenoxy]pentoxy}benzamidine]",105 ± 1.9,1.12,112 ± 1.6 # %,1.05
"C=Cc1sc(C)nc1-c1ccc(OCCCCCOc2ccc(/C(N)=N/O)cc2)cc1 [Compound 5, N-hydroxy-4-{5-[4-(5-vinyl-2-methyl-1,3-thiazol-4-yl)phenoxy]pentoxy}benzamidine]",100 ± 3.7,1.10,110 ± 2.4 # %,1.00
"CNc1nc(-c2ccc(OCCCCCOc3ccc(/C(N)=N/O)cc3)cc2)c(CC2CCCC2)s1 [Compound 6, N-hydroxy-4-{5-[4-(5-cyclopentylmethyl-2-methylamino-1,3-thiazol-4-yl)phenoxy]pentoxy}benzamidine]",103 ± 2.5,1.13,113 ± 1.7 ## %,1.03
Cc1sc(N(C)CCO)nc1-c1ccc(OCCCCCOc2ccc(/C(N)=N/O)cc2)cc1 [Compound 7],109 ± 3.2,1.20,120 ± 2.3 ## %,1.09
"Cc1sc(N(C)Cc2ccccc2)nc1-c1ccc(OCCCCCOc2ccc(/C(N)=N/O)cc2)cc1 [Compound 8, N-hydroxy-4-{5-[4-(2-benzylmethylamino-5-methyl-1,3-thiazol-4-yl)phenoxy]pentoxy}benzamidine]",102 ± 4.9,1.15,115 ± 2.3 ## %,1.02
"Cc1sc(N(C)Cc2cccnc2)nc1-c1ccc(OCCCCCOc2ccc(/C(N)=N/O)cc2)cc1 [Compound 9, N-hydroxy-4-{5-[4-(5-methyl-2-(methyl(pyridin-3-ylmethyl)amino)-1,3-thiazol-4-yl)phenoxy]pentoxy}benzamidine]",108 ± 2.3,1.20,120 ± 2.1 ## %,1.08
"CCc1sc(N(C)Cc2ccccc2)nc1-c1ccc(OCCCCCOc2ccc(/C(N)=N/O)cc2)cc1 [Compound 10, N-hydroxy-4-{5-[4-(2-benzylmethylamino-5-ethyl-1,3-thiazol-4-yl)phenoxy]pentoxy}benzamidine]",99 ± 2.5,1.11,111 ± 1.3 # %,0.99
"CC(C)c1sc(N(C)Cc2cccnc2)nc1-c1ccc(OCCCCCOc2ccc(/C(N)=N/O)cc2)cc1 [Compound 12, N-hydroxy-4-{5-[4-(5-isopropyl-2-(methyl(pyridin-3-yl-methyl)amino)-1,3-thiazol-4-yl)phenoxy]pentoxy}benzamidine]",105 ± 3,1.15,115 ± 4.3 # %,1.05
"CCCCc1sc(N(C)CCN2CCOCC2)nc1-c1ccc(OCCCCCOc2ccc(/C(N)=N/O)cc2)cc1 [Compound 13, N-hydroxy-4-{5-[4-(5-butyl-2-(methyl(2-(4-morpholino)ethyl)amino)-1,3-thiazol-4-yl)phenoxy]pentoxy}benzamidine]",103 ± 5.2,1.13,113 ± 2.1 # %,1.03
"CCCN(CCC)c1nc(-c2ccc(OCCCCCOc3ccc(/C(N)=N/O)cc3)cc2)c(CC2CCCC2)s1 [Compound 14, N-hydroxy-4-{5-[4-(5-cyclopentylmethyl-2-dipropylamino-1,3-thiazol-4-yl)phenoxy]pentoxy}benzamidine]",103 ± 2.5,1.13,113 ± 1.3 # %,1.03
"CN(CCN1CCOCC1)c1nc(-c2ccc(OCCCCCOc3ccc(/C(N)=N/O)cc3)cc2)c(C2CCCC2)s1 [Compound 15, N-hydroxy-4-{5-[4-(5-cyclopentyl-2-(methyl(2-(4-morpholino)ethyl)amino)-1,3-thiazol-4-yl)phenoxy]pentoxy}benzamidine]",103 ± 3,1.15,115 ± 0.8 ## %,1.03
"CCCN(CCC)c1nc(-c2ccc(OCCCCCOc3ccc(/C(N)=N/O)cc3)cc2)c(C(C)C)s1 [Compound 16, N-hydroxy-4-{5-[4-(5-isopropyl-2-dipropylamino-1,3-thiazol-4-yl)phenoxy]pentoxy}benzamidine]",107 ± 1.3,1.18,118 ± 3.7 # %,1.07
"CC(C)c1sc(N(C)C)nc1-c1ccc(OCCCCCOc2ccc(/C(N)=N/O)cc2)cc1 [Compound 17, N-hydroxy-4-{5-[4-(5-isopropyl-2-dimethylamino-1,3-thiazol-4-yl)phenoxy]pentoxy}benzamidine]",97 ± 1.3,1.13,113 ± 1.7 # %,0.97
